Experiment: log Kow (penetration ability) of test molecules
Format: physicochemical
Description: A water suspension of liposomes was prepared with 1.5% of hydrophilic molecule A or 300 ppm (0.03%) hydrophilic molecule B, and 27% Pro-Lipo™ Neo. […] Molecule B was a hexapeptide (hexapeptide-38) with a molecular weight of (870 g/mol) and a penetration ability log Kow of −1.13. A water solution with 1.5% A or 300 ppm B was used as a control (non-entrapped molecule).

Compound	penetration ability log Kow
Cn1c(=O)c2c(ncn2C)n(C)c1=O [Molecule A, caffeine]	−0.07
hexapeptide-38 [Molecule B]	−1.13
